Assay results reported in patent US6683079B2, “3-(amino-or aminoalkyl) pyridinone derivatives and their use for the treatment of HIV related diseases” (Centre National de la Recherche Scientifique, priority 1998, dated 2004).

Columns and labels:
[1] = test system: HIV-1 strain IIIB; assay: Retrovirucidal effect on HIV-1 strain IIIB (Table 3); format: cell-based; conditions: pIC50=-log IC50, IC50 in M
Procedure: (§1) HIV-1 viral suspensions were obtained by coculture of MT4 cells and H9 cells chronically infected by HIV-ILai isolate. 200 μl of a cell supernatant containing viral particles (HIV-ILai: 100 TCID50) were incubated at room temperature with various concentrations of different inhibitors. After 3 hours, virions were washed through 0.02 μm anopore membrane in 1.5 mL Vectaspin tube (Whatman) for 10 minutes at 5 000 g. Each of the three subsequent washes was performed in the same conditions after the viral concentrate was refilled with 500 μL of RPMI medium. Then, the viral concentrate was readjusted to the initial volume with RPMI plus 10% foetal calf serum (FCS). The residual infectivity was assayed on P4 cells as described by CHARNEAU et al. (1994, J. Mol. Biol., 241, 651-662). Briefly, P4 cells were plated using 100 μL of DMEM medium plus 10% FCS in 96 plate multi-wells at 20×10^5 cells per mL. After overnight incubation at 37° C., the supernatant was discarded and the viral preparation (200 μL) was added. One day later the wells were washed three times in PBS. Each well was refilled with 200 μL of a reaction buffer containing 50 mM Tris-HCl pH 8.5, 100 mM 2-mercaptoethanol, 0.05% Triton X-100 and 5 mM 4-methylumbelliferyl β-D-galactopyranoside (MUG). After 3 hours at 37° C., the level of the reaction was measured in a fluorescence microplate reader.
(§2) The retrovirucidal effect of each pyridinone derivative listed in table 3 has been assayed according to the teachings of example 2, excepted that the anti-viral effect has been tested on the two following HIV-1 strains:
a) HIV-1 strain IIIB (see example 2);

[2] = test system: HIV-1 strain 103 N; assay: Retrovirucidal effect on HIV-1 strain 103 N (Table 3); format: cell-based; conditions: HIV-1 strain 103N (RT Lys-103 to Asn mutant); pIC50=-log IC50, IC50 in M
Procedure: as §1, §2
b) HIV-1 strain 103 N which is a mutant strain bearing a point mutation in the reverse transcriptase gene leading to an enzyme wherein the initial Lys-103 residue is replaced for a Asn residue.
The HIV-1 103 N strain has also been described by SAHLBERG et al.,(1998, Antiviral Res., 37 (3): ASS) and BALZARiNI et al. (1996, Antimicrobial Agents and Chemotherapy, 40 (6): 1454-1466).

SMILES	HIV1 pIC50 strain IIIB [1]	HIV1 pIC50 strain 103N [2]
CCc1c(C)[nH]c(=O)c(N(C)C)c1Cc1ccnc2ccccc12 [Compound 75]	5.252	4.132
Cc1cc(C)cc(Cc2cc[nH]c(=O)c2N)c1 [Compound 15]	<4.17	4.138
CCc1c(C)[nH]c(=O)c(N(C)C)c1Cc1ccc(C)cc1 [Compound 18]	6.454	4.895
CCCCN(CCCC)c1c(Cc2cc(C)cc(C)c2)c(CC)c(C)[nH]c1=O [Compound 24]	4.262	<4
CCc1c(C)[nH]c(=O)c(N(C)C)c1Cc1ccc(C(F)(F)F)cc1 [Compound 53]	5.828	<5
CCc1c(C)[nH]c(=O)c(N(C)Cc2ccccc2)c1Cc1cc(C)cc(C)c1 [Compound 67]	6.804	4.955
CCc1cccc(Cc2c(CC)c(C)[nH]c(=O)c2N)c1 [Compound 98]	5.358	4.978
CCc1c(C)[nH]c(=O)c(N(C)C)c1C(=O)c1ccc(C)o1 [Compound 158]	8.041	6.625
CCNc1c(Cc2cc(C)cc(C)c2)c(CC)c(C)[nH]c1=O [Compound 81]	7.866	6.444
CCc1c(C)[nH]c(=O)c(N(Cc2ccccc2)Cc2ccccc2)c1Cc1cc(C)cc(C)c1 [Compound 25]	<4	4.259
Cc1cc(C)cc(Cc2cc(CCC(C)C)[nH]c(=O)c2N(C)C)c1 [Compound 77]	5.827	<4
Cc1cc(C)cc(Cc2c(C)c(C)[nH]c(=O)c2N(C)C)c1 [Compound 33]	8.42	6.286
Cc1cc(C)cc(Cc2c3c([nH]c(=O)c2N)CCCC3)c1 [Compound 172]	6.419	4.903
CCc1c(C)[nH]c(=O)c(N)c1Cc1ccc(C)cc1C [Compound 31]	<4	<4
CCCN(CCC)c1c(Cc2cc(C)cc(C)c2)c(CC)c(C)[nH]c1=O [Compound 17]	6.285	4.379
Cc1cc(C)cc(Cc2cc(C)[nH]c(=O)c2N(C)C)c1 [Compound 101]	6.341	4.25
CCc1c(C)[nH]c(=O)c(N(C)C)c1Cc1c(C)cc(C)cc1C [Compound 59]	5.029	<5
CCc1c(C)[nH]c(=O)c(N(C)C)c1Cc1cccc(F)c1 [Compound 42]	8.569	7.18
CCc1c(C)[nH]c(=O)c(N)c1C(=O)c1cc(C)cc(C)c1 [Compound 2]	6.612	6.64
CCc1c(C)[nH]c(=O)c(N)c1CNCc1ccccc1 [Compound 80]	<4	<4
CCc1c(C)[nH]c(=O)c(NC)c1C(=O)c1cccc(Br)c1 [Compound 179]	8.42	7.182
CCc1c(C)[nH]c(=O)c(NCc2cc(C)c(C)cc2OC)c1Cc1cc(C)cc(C)c1 [Compound 4]	5.094	<4
CCc1[nH]c(=O)c(N(C)C)c(Cc2cc(C)cc(C)c2)c1C [Compound 28]	8.032	6.943
Cc1cc(C)cc(Cc2c3c([nH]c(=O)c2N(C)C)CCCC3)c1 [Compound 173]	8.086	6.489
CCc1c(C)[nH]c(=O)c(N)c1Cc1ccc(-c2ccccc2)cc1 [Compound 49]	<4	<5
CCc1c(C)[nH]c(=S)c(N(C)C)c1C(=O)c1cc(C)cc(C)c1 [Compound 138]	8.215	7.401
CCc1c(C)[nH]c(=O)c(N(C)CCOC)c1Cc1cccc(C(F)(F)F)c1 [Compound 161]	7.821	5.814
CCc1c(C)[nH]c(=O)c(N)c1Cc1ccc(C)cc1 [Compound 8]	4.373	4.39

SMILES	HIV1 pIC50 strain IIIB [1]	HIV1 pIC50 strain 103N [2]
CCCc1c(C)[nH]c(=O)c(N(C)C)c1Cc1cc(C)cc(C)c1 [Compound 71]	7.777	7.049
CCc1c(C)[nH]c(=O)c(N(C)C)c1Cc1ccc(C)c(C)c1 [Compound 19]	7.447	5.947
CCc1c(C)[nH]c(=O)c(N(C)CCCSC)c1Cc1cc(C)cc(C)c1 [Compound 61]	7.693	5.922
Cc1cc(C)cc(Cc2cc(CCC(C)C)[nH]c(=O)c2N)c1 [Compound 76]	<5.494	<4
CCc1c(C)[nH]c(=O)c(N(C)C)c1Cc1nccs1 [Compound 66]	7.588	5.72
CCc1c(C)[nH]c(=O)c(N(C)C)c1C(=O)c1cccs1 [Compound 178]	7.873	6.461
CCc1c(C)[nH]c(=O)c(N(C)CCCCCO)c1Cc1cc(C)cc(C)c1 [Compound 123]	8.444	6.918
CCc1c(C)[nH]c(=O)c(N(C)C)c1Cc1ccc(C)cc1C [Compound 34]	5.019	<4
CCc1c(C)[nH]c(=O)c(N(C)C)c1Cc1cccc(C(F)(F)F)c1 [Compound 57]	8.086	6.414
CCCNc1c(Cc2cc(C)cc(C)c2)c(CC)c(C)[nH]c1=O [Compound 82]	7.735	5.813
CCc1c(C)[nH]c(=O)c(N(C)CC(C)C)c1Cc1cc(C)cc(C)c1 [Compound 62]	6.604	5.305
CCc1c(C)[nH]c(=O)c(NC)c1Cc1cc(C)cc(C)c1 [Compound 46]	8.119	7.034
CCc1c(C)[nH]c(=O)c(N(C)C)c1Cc1cc(C)ccc1C [Compound 37]	6.796	5.729
CCc1c(C)[nH]c(=O)c(N(C)C)c1CN(C)Cc1ccccc1 [Compound 102]	4.369	<4
CCc1c(C)[nH]c(=O)c(N(C)C)c1Cc1cc(C)cc(C)c1 [Compound 3]	8.004	7.438
CCc1c(C)[nH]c(=O)c(N)c1CNCc1cccc(C)c1 [Compound 83]	<4.033	<4
CCc1c(C)[nH]c(=O)c(N)c1C(=O)c1ccc(OC)c(C)c1 [Compound 168]	4.525	4.806
CCc1c(C)[nH]c(=O)c(N(C)C)c1Cc1cccc(Br)c1 [Compound 60]	8.444	7.001
CCc1c(C)[nH]c(=O)c(N)c1Cc1cccc(C)c1 [Compound 9]	5.373	5.103
CCc1c(C)[nH]c(=O)c(N(C)C)c1C(=O)c1cccc(Br)c1 [Compound 174]	8.921	7.68
CCc1c(C)[nH]c(=O)c(N)c1Cc1nccn1C [Compound 84]	<4	<4
Cc1cc(C)cc(Cc2cc[nH]c(=O)c2N(C)C)c1 [Compound 16]	5.061	4.401
CCc1c(C)[nH]c(=O)c(N)c1C(=O)c1cccs1 [Compound 177]	5.106	<4
CCc1c(C)[nH]c(=O)c(N(C)CCO)c1Cc1cccc(C)c1 [Compound 145]	8.42	6.028
CCc1c(Cc2cc(C)cc(C)c2)c(N(C)C)c(=O)n(Cc2ccccc2)c1C [Compound 22]	4.603	<4
CCc1c(C)[nH]c(=O)c(N(C)C)c1Nc1cccc(C)c1 [Compound 176]	8.432	6.436
CCc1c(C)[nH]c(=O)c(N(C)C)c1CNc1cccc(C)c1 [Compound 163]	5.596	4.236
